The text below walks through data of US9585821B2, “Methods for making compositions for improving skin conditions” (Allergan Industrie SAS, priority 2010, dated 2017).

Data set [1] is described as follows: Appearance of fluid compositions, visually examined. The class given is physicochemical. Particulars: fluid compositions comprising a matrix polymer. The method, then:
Fluid compositions made for testing were prepared as described in Example 1, except that 1) 1 mL of each fluid composition was made and the amount of mannitol added to the test fluid compositions was 0% (w/v) for control, 0.5% (w/v), 5% (w/v), 9% (w/v), and 17% (w/v). The appearance of the fluid compositions was visually examined.

A short description of data set [2]: Chemical and physical stability of mannitol after sterilization. Type of data set: physicochemical. Particulars: 25% Mannitol autoclaved five times at 121° C. for 15 minutes. The method, then:
The chemical and physical stability of mannitol after sterilization was determined by autoclaving 25% Mannitol ([…] Pharmaceuticals, Itasca, Ill.) five times at 121° C. for 15 minutes.

The conditions of data set [3]: known, cited from earlier work.

Take `OC[C@@H](O)[C@@H](O)[C@H](O)[C@H](O)CO` [mannitol]: the “mannitol that fluid compositions can include before it begins to precipitate” value in data set [1] is given as “about 15.4%”. For the same compound, the “chemical and physical stability after sterilization” value in data set [2] is “chemically and physically stable”. Besides, the mass solubility in data set [3] (in water) is recorded as 15.4%. Moreover, in data set [3], the “mannitol solubility in water” value is reported as 1 g mannitol/5.5 ml water.
